In this assay the target is T1, Human MGAT-2 (Homo sapiens, UniProt Q3SYC2).
T1 construct: made in house; host or cells: Sf9 cells (membrane preparation)
T1 sequence (Q3SYC2 whole entry): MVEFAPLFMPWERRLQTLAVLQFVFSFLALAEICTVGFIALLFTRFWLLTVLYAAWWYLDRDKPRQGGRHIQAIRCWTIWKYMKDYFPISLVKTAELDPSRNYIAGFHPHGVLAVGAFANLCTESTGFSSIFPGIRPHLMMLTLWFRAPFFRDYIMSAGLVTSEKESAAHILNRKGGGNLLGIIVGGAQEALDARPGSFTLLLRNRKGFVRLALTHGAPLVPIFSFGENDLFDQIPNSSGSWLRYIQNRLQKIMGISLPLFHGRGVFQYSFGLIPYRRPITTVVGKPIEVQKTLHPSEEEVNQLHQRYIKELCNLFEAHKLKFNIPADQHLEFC
The experiment in a line: MGAT LCMS Assay. The following applies: human MGAT2 membranes expressed in Sf9 cells; 100 μM 2-oleoylglycerol, 15 μM oleoyl-coenzyme A; read-out: h-MGAT LCMS IC50. Format: biochemical. How it is done: Assay plates were run through a fully automated robotics system and shaken for 5 seconds every minute for a total 10 minutes. The reactions were then quenched with 120 μL of ice cold methanol containing 1 μg/mL 1,2-distearoyl-rac-glycerol as the internal standard. Plates were shaken for 2 minutes and spun down to remove protein precipitation. After the spin, samples were transferred to LC/MS compatible PCR plates. For LC/MS analysis, a ThermoFisher Surveyor pump, utilizing a Waters […]® C8, 50×2.1 mm column, was used for the chromatography of enzyme products. The buffer system consists of 0.1% formic acid in water with a mobile phase consisting 0.1% formic acid in methanol. […] The first 0.5 minutes of each injection was diverted to waste to eliminate the presence of Phosphate buffer in the enzymatic reaction. The column was run at 0.6 mL/min and a temperature of 65° C. Mass spectrometry analysis of the samples was performed on a ThermoFisher Quantum Triple quad utilizing APCI (+) as the mode of ionization. […] The ratio of Diolein to internal standard (Peak Area Ratio) is utilized to calculate IC50 values.
As for `CCOc1ccc(NC(=O)c2c(-c3ccn(CC)n3)cc(-c3ccc(OCCCC(F)(F)F)cc3F)[nH]c2=O)cc1` [Example 119, N-(4-Ethoxyphenyl)-4-(1-ethyl-1H-pyrazol-3-yl)-6-(2-fluoro-4-(4,4,4-trifluorobutoxy)phenyl)-2-oxo-1,2-dihydropyridine-3-carboxamide], the half-maximal inhibitory concentration (IC50) was 10 nM.

As for `CCOc1ccc(NC(=O)c2c(-c3cnc(N(C)C)s3)cc(C3(F)CCCCC3)[nH]c2=O)cc1` [Example 10, 4-(2-(Dimethylamino)thiazol-5-yl)-N-(4-ethoxyphenyl)-6-(1-fluorocyclohexyl)-2-oxo-1,2-dihydropyridine-3-carboxamide], the IC50 amounted to 17 nM.

Consider `CCCCCc1ccc(-c2cc(-c3ccc(C)cc3)c(C(=O)Nc3ccccc3)c(=O)[nH]2)cc1` [Example 33, 2-Oxo-6-(4-pentylphenyl)-N-phenyl-4-(p-tolyl)-1,2-dihydropyridine-3-carboxamide], for which the IC50 amounted to 218 nM.

Consider `CCOc1ccc(NC(=O)c2c(-c3cnc(N(C)C)s3)cc(-c3ccc(OCCCC(F)(F)F)cc3)[nH]c2=O)cc1` [Example 67], for which the IC50 amounted to 2 nM.

Take `CC(C)(C)c1ccc(-c2cc(-c3ccc(OCCCC(F)(F)F)cc3)[nH]c(=O)c2-c2nnn[nH]2)cc1` [Example 48, 4-(4-(tert-Butyl)phenyl)-3-(1H-tetrazol-5-yl)-6-(4-(4,4,4-trifluorobutoxy)phenyl)pyridin-2(1H)-one]: the IC50 worked out at 40 nM.

For the molecule `Cc1ccc(-c2cc(-c3ccc(CCC4CC4)cc3)[nH]c(=O)c2-c2nnn[nH]2)cc1` [Example 61, 6-(4-(2-Cyclopropylethyl)phenyl)-3-(1H-tetrazol-5-yl)-4-(p-tolyl)pyridin-2(1H)-one], the half-maximal inhibitory concentration (IC50) was determined as 139 nM.

Consider `CCCCCc1ccc(-c2cc(-c3ccc(CC)o3)c(C(=O)Nc3ccc(OCC)cc3)c(=O)[nH]2)cc1` [Example 42, N-(4-Ethoxyphenyl)-4-(5-ethylfuran-2-yl)-2-oxo-6-(4-pentylphenyl)-1,2-dihydropyridine-3-carboxamide], for which the IC50 was 395 nM.

As for “5-Chloro-6-cyclohexyl-N-(4-methoxyphenyl)-2-oxo-4-(p- tolyl)-1,2-dihydropyridine-3-carboxamide [Example 35]”, the IC50 was found to be 288 nM.

As for `O=c1[nH]c(-c2ccc(OCCCC(F)(F)F)cc2F)cc(-c2ncc(C3CC3)s2)c1-c1nnn[nH]1` [Example 125, 4-(5-Cyclopropylthiazol-2-yl)-6-(2-fluoro-4-(4,4,4-trifluorobutoxy)phenyl)-3-(1H-tetrazol-5-yl)pyridin-2(1H)-one], the half-maximal inhibitory concentration (IC50) was 2 nM.

For the molecule `O=c1[nH]c(-c2ccc(OCCCC(F)(F)F)cc2F)cc(-c2ccc3c(c2)CCCC3)c1-c1nn[nH]n1` [Example 89, 6-(2-Fluoro-4-(4,4,4-trifluorobutoxy)phenyl)-4-(5,6,7,8-tetrahydronaphthalen-2-yl)-3-(2H-tetrazol-5-yl)pyridin-2(1H)-one], the half-maximal inhibitory concentration (IC50) was 24 nM.

On to `Cc1ccc(-c2cc(-c3ccc(OCCCC(F)(F)F)cc3)[nH]c(=O)c2C(=O)NC2CCC2)cc1` [Example 79, N-Cyclobutyl-2-oxo-4-(p-tolyl)-6-(4-(4,4,4-trifluorobutoxy)phenyl)-1,2-dihydropyridine-3-carboxamide], for which the IC50 was 198 nM.

For the molecule `CCc1ccc(-c2cc(-c3ccc(OCCCC(F)(F)F)cc3F)[nH]c(=O)c2-n2nn[nH]c2=O)s1` [Example 152, 4-(5-Ethylthiophen-2-yl)-6-(2-fluoro-4-(4,4,4-trifluorobutoxy)phenyl)-3-(5-oxo-4,5-dihydro-1H-tetrazol-1-yl)pyridin-2(1H)-one], the IC50 turned out to be 23 nM.

With `CCc1cnc(-c2cc(-c3ccc(/C=C/C4CC4)cc3)[nH]c(=O)c2-c2nn[nH]n2)s1` [Example 147, (E)-6-(4-(2-Cyclopropylvinyl)phenyl)-4-(5-ethylthiazol-2-yl)-3-(2H-tetrazol-5-yl)pyridin-2(1H)-one], the IC50 was found to be 7 nM.

Turning to `CCCC1CC=C(c2ccc(-c3cc(-c4ccc(CC)s4)c(-c4nn[nH]n4)c(=O)[nH]3)cc2)CC1` (stereo not drawn) [Example 164, 4-(5-Ethylthiophen-2-yl)-6-[4-(4-propylcyclohex-1-en-1-yl)phenyl]-3-(2H-1,2,3,4-tetrazol-5-yl)-1,2-dihydropyridin-2-one], the 50% inhibitory concentration (IC50) was 55 nM.

Take `Cc1ccc(-c2cc(-c3ccc(OCCCCCC(F)(F)F)cc3F)[nH]c(=O)c2-n2nn[nH]c2=O)cc1` [Example 159, 6-{2-Fluoro-4-[(6,6,6-trifluorohexyl)oxy]phenyl}-4-(4-methylphenyl)-3-(5-oxo-4,5-dihydro-1H-1,2,3,4-tetrazol-1-yl)-1,2-dihydropyridin-2-one]: the concentration for half-maximal inhibition (IC50) amounted to 38 nM.

Take `O=c1[nH]c(-c2ccc(OCCCCC(F)(F)F)cc2)cc(-c2ccc(C3CC3)s2)c1-c1nnn[nH]1` [Example 46]: the IC50 stood at 27 nM.

On to `CN(C)c1ccc(-c2cc(-c3ccc(OCCCCCC(F)(F)F)cc3)[nH]c(=O)c2-c2nnn[nH]2)cc1` [Example 59, 4-(4-(Dimethylamino)phenyl)-3-(1H-tetrazol-5-yl)-6-(4-((6,6,6-trifluorohexyl)oxy)phenyl)pyridin-2(1H)-one], for which the IC50 is 6 nM.

On to `CC(C)n1ccc(-c2cc(-c3ccc(OCCCCCC(F)(F)F)cc3)[nH]c(=O)c2-c2nnn[nH]2)c1` [Example 57, 4-(1-Isopropyl-1H-pyrrol-3-yl)-3-(1H-tetrazol-5-yl)-6-(4-((6,6,6-trifluorohexyl)oxy)phenyl)pyridin-2(1H)-one], for which the IC50 was 30 nM.

For `CCc1ccc(-c2cc(-c3ccc(OCCCC(F)(F)F)cc3Cl)[nH]c(=O)c2-c2nnn[nH]2)s1` [Example 139, 6-(2-Chloro-4-(4,4,4-trifluorobutoxy)phenyl)-4-(5-ethylthiophen-2-yl)-3-(1H-tetrazol-5-yl)pyridin-2(1H)-one], the IC50 is 4 nM.

In the case of `CCOc1cc(OCCCC(F)(F)F)ccc1-c1cc(-c2ncc(C3CC3)s2)c(C(=O)NS(C)(=O)=O)c(=O)[nH]1` [Example 143, 4-(5-Cyclopropylthiazol-2-yl)-6-(2-ethoxy-4-(4,4,4-trifluorobutoxy)phenyl)-N-(methylsulfonyl)-2-oxo-1,2-dihydropyridine-3-carboxamide], the IC50 was found to be 52 nM.

Turning to `Cc1ccc(-c2cc(-c3ccc(OCCCC(F)(F)F)cc3)[nH]c(=O)c2-n2nn[nH]c2=O)cc1` [Example 153, 3-(5-Oxo-4,5-dihydro-1H-tetrazol-1-yl)-4-(p-tolyl)-6-(4-(4,4,4-trifluorobutoxy)phenyl)pyridin-2(1H)-one], the half-maximal inhibitory concentration (IC50) was determined as 49 nM.

With `Cc1ccc(-c2cc(-c3ccc(OCCCC(F)(F)F)cc3)[nH]c(=O)c2-c2nnn[nH]2)cc1C` [Example 50, 4-(3,4-Dimethylphenyl)-3-(1H-tetrazol-5-yl)-6-(4-(4,4,4-trifluorobutoxy)phenyl)pyridin-2(1H)-one], the IC50 is 109 nM.

For the molecule `Cc1ccc(-c2c(C)c(-c3ccc(OCCCC(F)(F)F)cc3)[nH]c(=O)c2-c2nnn[nH]2)cc1` [Example 7, 5-Methyl-3-(1H-tetrazol-5-yl)-4-(p-tolyl)-6-(4-(4,4,4-trifluorobutoxy)phenyl)pyridin-2(1H)-one], the IC50 came out at 9 nM.

Regarding `Cc1ccc(-c2cc(-c3ccc(OCCCCCC(F)(F)F)cc3)[nH]c(=O)c2C(=O)NS(=O)(=O)N(C)C)cc1` [Example 56, N-(N,N-Dimethylsulfamoyl)-2-oxo-4-(p-tolyl)-6-(4-((6,6,6-trifluorohexyl)oxy)phenyl)-1,2-dihydropyridine-3-carboxamide], the IC50 was 29 nM.

Take `CS(=O)(=O)NC(=O)c1c(-c2ccn(CC3CC3)n2)cc(-c2ccc(OCCCCCC(F)(F)F)cc2)[nH]c1=O` [Example 105, 4-(1-(Cyclopropylmethyl)-1H-pyrazol-3-yl)-N-(methylsulfonyl)-2-oxo-6-(4-((6,6,6-trifluorohexyl)oxy)phenyl)-1,2-dihydropyridine-3-carboxamide]: the IC50 turned out to be 23 nM.

Turning to `CCOc1ccc(NC(=O)c2c(-c3ccc(C)cc3)cc(C3CCCCC3)[nH]c2=O)cc1` [Example 28, 6-Cyclohexyl-N-(4-ethoxyphenyl)-2-oxo-4-(p-tolyl)-1,2-dihydropyridine-3-carboxamide], the IC50 was 137 nM.

Turning to `CCc1ccc(-c2cc(-c3ccc(/C=C/C4CC4)cc3)[nH]c(=O)c2-c2nn[nH]n2)s1` [Example 142, (E)-6-(4-(2-Cyclopropylvinyl)phenyl)-4-(5-ethylthiophen-2-yl)-3-(2H-tetrazol-5-yl)pyridin-2(1H)-one], the IC50 was 4 nM.

With `O=c1[nH]c(-c2ccc(CCCCC(F)(F)F)cc2F)cc(-c2ccn(C3CCC3)n2)c1-c1nnn[nH]1` [Example 103], the IC50 came out at 26 nM.

As to `CCc1ccc(-c2cc(-c3ccc(OCCCC(F)(F)F)cc3Cl)[nH]c(=O)c2-n2nn[nH]c2=O)s1` [Example 22, 6-(2-Chloro-4-(4,4,4-trifluorobutoxy)phenyl)-4-(5-ethylthiophen-2-yl)-3-(5-oxo-4,5-dihydro-1H-tetrazol-1-yl)pyridin-2(1H)-one], the IC50 was 252 nM.

In the case of `CCOc1cc(OCCCC(F)(F)F)ccc1-c1cc(-c2ncc(C3CC3)s2)c(-c2nnn[nH]2)c(=O)[nH]1` [Example 137, 4-(5-Cyclopropylthiazol-2-yl)-6-(2-ethoxy-4-(4,4,4-trifluorobutoxy)phenyl)-3-(1H-tetrazol-5-yl)pyridin-2(1H)-one], the IC50 stood at 5 nM.

For orientation: IC50 means the midpoint of a concentration-inhibition curve.

The values are drawn from patent US9974778B2, “Substituted pyridinones as MGAT2 inhibitors” (BRISTOL-MYERS SQUIBB COMPANY, priority 2014, dated 2018).
